{"source": "patent US4202891A", "about": "“15-Oxygenated sterol compounds and the use of such compounds to inhibit the biosynthesis of sterols” (priority 1977, dated 1980)", "key": {"serum cholesterol": {"test_system": "serum cholesterol", "test": "Serum cholesterol concentration in rats, sterol in Cholesterol Free Test Diet (Examples 43, 46)", "type": "in vivo, rat (male, Sprague-Dawley)", "source_text": "(§1) Male rats of the Sprague-Dawley strain were purchased from Sprague-Dawley Farms (Madison, Wisconsin). The rats were maintained on a light (7:00 A.M.-5:30 P.M.)--dark (5:30 P.M.-7:00 A.M.) cycle and fed a Cholesterol Free Test Diet (United States Biochemical Corporation, Cleveland, Ohio) for a period of 13 days prior to the initiation of the experimental period. Six days prior to the initiation of the experimental period blood samples were taken for assay of serum cholesterol concentration and, based upon the results of these analyses, rats were divided into 3 groups with approximately the same mean serum cholesterol concentration. The rats were then individually housed in metabolic cages (Econo-Metabolism Units, Maryland Plastics, New York, New York) for 6 days prior to the initiation of the experimental period. The animals were maintained on the light-dark cycle throughout the experimental period.\nBlood samples were taken from the tail vein between 8:15 A.M. and 9:30 A.M. and at no time was more than ~0.5 ml of blood removed. Serum was obtained by centrifugation of the blood using Sure-Sep Junior (General Diagnostics, Division of Warner Lambert Company, Morris Plains, New Jersey) for 20 min at 2000-2500 rpm in a table top centrifuge (Dynac, Clay Adams Model 0091). Serum cholesterol concentration was assayed by a modification of the Cholesterol Auto Test (Bio-Dynamics, BMC Division) as described in Bio-Dynamics/bmc Cholesterol Instruction (revised December, 1975).\n(§2) 5α-Cholest-8(14)-en-3β-ol-15-one (500 mg), prepared and purified as described in Example 1, was added in small portions to 500 g of the Cholesterol Free Test Diet in a 2 liter glass stoppered bottle. After each addition of the sterol to the diet, the bottle was rolled and shaken thoroughly. The resulting 0.1% diet with respect to the 5α-cholest-8(14)-en-3β-ol-15-one was stored at 4° C. Prior to use in feeding, the diet was allowed to warm to room temperature (~25° C.).\n(§3) 2. Ketone group--7 rats with free access to the Cholesterol Free Test Diet containing 0.1% 5α-cholest-8(14)-en-3β-ol-15-one.\n(§4) Another experiment following essentially the procedure of Example 43 was performed in which the 5α-cholest-8(14)-en-3β-ol-15-one was incorporated into the Cholesterol Free Test Diet at a concentration of 0.2%."}, "[1]": {"test": "Body weight of rats, sterol in diet", "type": "in vivo, rat (male, Sprague-Dawley)", "source_text": "as §1\nThe individual animals were weighed daily throughout the experimental period. Food consumption by the individual rats was similarly recorded daily. No significant spillage of the food or contamination of the food by feces or urine was possible due to the nature of the matabolic cage and the food receptacles utilized.\nas §2, §3, §4"}, "[2]": {"test_system": "sterol biosynthesis in L cells", "test": "Inhibition of sterol synthesis from [1-14C]acetate in L cell cultures", "type": "cell-based", "conditions": "Mus musculus; L cell cultures; read-out: Concentrations Required for 50% Inhibition of Sterol Synthesis", "summary_of_the_method": "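Mouse L cells (NCTC clone 929 subline) in serum-free defined medium, preincubated 4 h with 15-oxygenated sterols, then given [1-14C]acetate at 4 μmoles per ml (4 μCi per ml). Sterol synthesis expressed as [14C]sterols/[14C]fatty acids ratio; 50% inhibitory concentration located over at least 4 compound concentrations.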"}, "[3]": {"test_system": "sterol biosynthesis in primary cultures of mouse liver cells", "test": "Inhibition of sterol synthesis from [1-14C]acetate in primary cultures of liver cells", "type": "cell-based", "conditions": "primary cultures of liver cells, read-out: Concentrations Required for 50% Inhibition of Sterol Synthesis", "method": "The effect of various 15-oxygenated sterols on sterol biosynthesis in L cells and in primary cultures of mouse liver cells was tested essentially under conditions described in detail previously [A. A. Kandutsch and H. W. Chen, J. Biol. Chem., Vol. 248, pp. 8408-8417 (1973) and A. A. Kandutsch and H. W. Chen, J. Biol. Chem., Vol. 249, pp. 6057-6061 (1974`)].\nThe primary liver cell cultures were prepared from 16-day-old (C57BL/6J fetuses and grown in chemically defined medium (serum-free) as described in the above cited publications. The L cells, a subline of NCTC clone 929 mouse fibroblasts, were grown in chemically defined medium (serum-free) as described in the publications. These L cells are transformed fibroblasts which are regarded as malignant since they will grow as tumors if injected into the mouse strain from which they were initially obtained.\nThe preparation of steroid-containing media, procedures for assays of the conversion of [1-^14 C]acetate into digitonin-precipitable sterols, fatty acids, and CO2 and methods for the measurement of DNA, protein, and HMG-CoA reductase were as described in the published articles. L cell cultures were preincubated with the 15-oxygenated sterols and their derivatives for 4 hours, then [1-^14 C]acetate was added at a concentration of 4 μmoles per ml (4 μCi per ml); or the L cell cultures were incubated for 5 hours with the 15-oxygenated sterols before they were harvested for determination of microsomal HMG-CoA reductase activity.\nConditions for incubating the 15-oxygenated sterols or their derivatives with liver cell cultures were similar to those described for L cell cultures except that the cultures were incubated with the test compounds for 12 hours before labeled acetate was added or before they were harvested for enzyme assay.\nThe test compounds were tested over a range of at least 4 concentrations and the assay was repeated until the concentration of test compound required to produce 50% inhibition was located on the steeply declining portion of an activity vs. concentration plot. To diminish any possible effects of generalized differences in cellular metabolism, the rates of sterol synthesis from [1-^14 C]acetate were calculated as the ratio of [^14 C]sterols to [^14 C]fatty acids as described in the two cited articles by Kandutsch and Chen."}, "[4]": {"conditions": "0.1% in diet, day 4, listed as Ketone"}, "[5]": {"conditions": "0.1% in diet, day 8, listed as Ketone"}, "[6]": {"conditions": "0.1% in diet, day 8, listed as ketone"}}}
{"smiles": "CC(C)CCC[C@@H](C)[C@H]1CC(=O)C2=C3CC[C@H]4C[C@@H](O)CC[C@]4(C)[C@H]3CC[C@@]21C", "note": "[5α-Cholest-8(14)-en-3β-ol-15-one, 5α-cholest-8(14)-en-3β-ol-15-one]", "values": [{"measurement": "effect on serum cholesterol concentrations (in words)", "setting": "serum cholesterol; 0.1% in diet", "result": "marked effect in lowering the serum cholesterol concentrations"}, {"measurement": "Serum cholesterol concentration", "setting": "serum cholesterol; 0.1% in diet, day 0", "result": "71.2 ± 0.9", "unit": "mg per 100 ml"}, {"measurement": "Serum cholesterol concentration", "setting": "serum cholesterol; 0.1% in diet, day 4", "result": 50.1, "unit": "mg per 100 ml"}, {"measurement": "Serum cholesterol concentration", "setting": "serum cholesterol; [4]", "result": "50.1 ± 2.3", "unit": "mg per 100 ml"}, {"measurement": "Serum cholesterol concentration, percentage of initial levels in individual rats", "setting": "serum cholesterol; [4]", "result": "70.5 ± 3.6", "unit": "%"}, {"measurement": "Serum cholesterol concentration, percentage of initial levels in individual rats", "setting": "serum cholesterol; 0.1% in diet, day 4, listed as ketone", "result": 70.5, "unit": "%"}, {"measurement": "Serum cholesterol concentration", "setting": "serum cholesterol; 0.1% in diet, day 8", "result": 36.9, "unit": "mg per 100 ml"}, {"measurement": "Serum cholesterol concentration", "setting": "serum cholesterol; [5]", "result": "36.9 ± 3.3", "unit": "mg per 100 ml"}, {"measurement": "Serum cholesterol concentration, percentage of initial levels in individual rats", "setting": "serum cholesterol; [5]", "result": "51.8 ± 4.4", "unit": "%"}, {"measurement": "Serum cholesterol concentration, percentage of initial levels in individual rats", "setting": "serum cholesterol; [6]", "result": 51.8, "unit": "%"}, {"measurement": "effect on serum cholesterol concentration (in words)", "setting": "serum cholesterol; 0.2% in diet", "result": "marked effect on the serum cholesterol concentration"}, {"measurement": "Serum cholesterol concentration", "setting": "serum cholesterol; 0.2% in diet, day 0", "result": "80.5 ± 2.8", "unit": "mg per 100 ml"}, {"measurement": "Serum cholesterol concentration", "setting": "serum cholesterol; 0.2% in diet, day 4", "result": 73.2, "unit": "mg per 100 ml"}, {"measurement": "Serum cholesterol levels, percentage of initial levels in individual rats", "setting": "serum cholesterol; 0.2% in diet, day 4", "result": "91.6 ± 4.3", "unit": "%"}, {"measurement": "Serum cholesterol concentration", "setting": "serum cholesterol; 0.2% in diet, day 4, listed as Ketone", "result": "73.2 ± 3.0", "unit": "mg per 100 ml"}, {"measurement": "Serum cholesterol concentration", "setting": "serum cholesterol; 0.2% in diet, day 7", "result": 32.2, "unit": "mg per 100 ml"}, {"measurement": "Serum cholesterol levels, percentage of initial levels in individual rats", "setting": "serum cholesterol; 0.2% in diet, day 7", "result": "40.6 ± 7.9", "unit": "%"}, {"measurement": "Serum cholesterol concentration", "setting": "serum cholesterol; 0.2% in diet, day 7, listed as Ketone", "result": "32.2 ± 5.9", "unit": "mg per 100 ml"}, {"measurement": "Serum cholesterol concentration", "setting": "serum cholesterol; 0.2% in diet, day 9", "result": 30.3, "unit": "mg per 100 ml"}, {"measurement": "Serum cholesterol levels, percentage of initial levels in individual rats", "setting": "serum cholesterol; 0.2% in diet, day 9", "result": "37.9 ± 8.8", "unit": "%"}, {"measurement": "Serum cholesterol concentration", "setting": "serum cholesterol; 0.2% in diet, day 9, listed as Ketone", "result": "30.3 ± 6.2", "unit": "mg per 100 ml"}, {"measurement": "Body weight", "setting": "[1]; 0.1% in diet, day 0", "result": "130.4 ± 4.4", "unit": "g"}, {"measurement": "Body weight", "setting": "[1]; 0.1% in diet, day 1", "result": "126.6 ± 4.8", "unit": "g"}, {"measurement": "Percentage change in weight from initial in individual rats", "setting": "[1]; 0.1% in diet, day 1", "result": "-3.0 ± 0.7", "unit": "%"}, {"measurement": "Body weight", "setting": "[1]; 0.1% in diet, day 2", "result": "121.4 ± 4.4", "unit": "g"}, {"measurement": "Percentage change in weight from initial in individual rats", "setting": "[1]; 0.1% in diet, day 2", "result": "-7.0 ± 0.7", "unit": "%"}, {"measurement": "Body weight", "setting": "[1]; 0.1% in diet, day 3", "result": "120.6 ± 4.6", "unit": "g"}, {"measurement": "Percentage change in weight from initial in individual rats", "setting": "[1]; 0.1% in diet, day 3", "result": "-7.7 ± 0.7", "unit": "%"}, {"measurement": "Body weight", "setting": "[1]; 0.1% in diet, day 4", "result": "118.5 ± 4.0", "unit": "g"}, {"measurement": "Percentage change in weight from initial in individual rats", "setting": "[1]; 0.1% in diet, day 4", "result": "-9.1 ± 0.7", "unit": "%"}, {"measurement": "Body weight", "setting": "[1]; 0.1% in diet, day 5", "result": "119.4 ± 4.3", "unit": "g"}, {"measurement": "Percentage change in weight from initial in individual rats", "setting": "[1]; 0.1% in diet, day 5", "result": "-8.5 ± 0.5", "unit": "%"}, {"measurement": "Body weight", "setting": "[1]; 0.1% in diet, day 6", "result": "118.9 ± 4.8", "unit": "g"}, {"measurement": "Percentage change in weight from initial in individual rats", "setting": "[1]; 0.1% in diet, day 6", "result": "-8.7 ± 1.0", "unit": "%"}, {"measurement": "Body weight", "setting": "[1]; 0.1% in diet, day 7", "result": "116.5 ± 4.9", "unit": "g"}, {"measurement": "Percentage change in weight from initial in individual rats", "setting": "[1]; 0.1% in diet, day 7", "result": "-10.8 ± 1.3", "unit": "%"}, {"measurement": "Percentage change in weight from initial in individual rats", "setting": "[1]; 0.1% in diet, day 8", "result": "-10.2 ± 0.9", "unit": "%"}, {"measurement": "Body weight", "setting": "[1]; [5]", "result": "117.3 ± 4.7", "unit": "g"}, {"measurement": "Body weight", "setting": "[1]; [6]", "result": 117.3, "unit": "g"}, {"measurement": "Body weight", "setting": "[1]; 0.2% in diet, day 0", "result": "152.3 ± 5.5", "unit": "g"}, {"measurement": "Body weight", "setting": "[1]; 0.2% in diet, day 1", "result": "151.3 ± 4.7", "unit": "g"}, {"measurement": "Body weight", "setting": "[1]; 0.2% in diet, day 2", "result": "145.4 ± 4.9", "unit": "g"}, {"measurement": "Body weight", "setting": "[1]; 0.2% in diet, day 3", "result": "139.0 ± 4.8", "unit": "g"}, {"measurement": "Body weight", "setting": "[1]; 0.2% in diet, day 4", "result": "137.4 ± 4.9", "unit": "g"}, {"measurement": "Body weight", "setting": "[1]; 0.2% in diet, day 5", "result": "134.5 ± 4.5", "unit": "g"}, {"measurement": "Body weight", "setting": "[1]; 0.2% in diet, day 6", "result": "130.7 ± 5.1", "unit": "g"}, {"measurement": "Body weight", "setting": "[1]; 0.2% in diet, day 7", "result": "127.7 ± 5.2", "unit": "g"}, {"measurement": "Body weight", "setting": "[1]; 0.2% in diet, day 8, listed as Ketone", "result": "122.3 ± 5.8", "unit": "g"}, {"measurement": "Body weight", "setting": "[1]; 0.2% in diet, day 8, listed as ketone", "result": 122.3, "unit": "g"}, {"measurement": "IC50", "setting": "[2]", "result": 0.1, "unit": "µM"}, {"measurement": "IC50", "setting": "[3]", "result": 4, "unit": "µM"}]}
